# According to patent US20240190890A1, “MK2 INHIBITORS AND USES THEREOF” (Bristol-Myers Squibb Company, priority 2022, published 2024):
# Target: p38a activated, mitogen-activated protein kinase-activated protein kinase 2 (MAPKAP-K2 or MK2) enzyme (Homo sapiens (Human), UniProt P49137)
# Assay: MK2 Omnia continuous-read kinase assay for compound potency
# Assay type: biochemical
# Settings: [MK-2]=0.4 nM, [ATP]=10 μM, [ST3-Sox]=10 μM; room temperature
# Procedure, shortened: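 p38a-activated MK2 (0.4 nM) with 10 μM ATP (apparent Km) and 10 μM S/T3-Sox peptide in Tris pH 7.5 buffer with MgCl2, EGTA and DTT. Fluorescence (ex360/em485) read continuously for 120 min at room temperature. IC50 from initial linear slopes; apparent kinact/KI from kobs of exponential progress-curve fits.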
# Sequence of p38a activated, mitogen-activated protein kinase-activated protein kinase 2 (MAPKAP-K2 or MK2) enzyme (P49137 whole entry): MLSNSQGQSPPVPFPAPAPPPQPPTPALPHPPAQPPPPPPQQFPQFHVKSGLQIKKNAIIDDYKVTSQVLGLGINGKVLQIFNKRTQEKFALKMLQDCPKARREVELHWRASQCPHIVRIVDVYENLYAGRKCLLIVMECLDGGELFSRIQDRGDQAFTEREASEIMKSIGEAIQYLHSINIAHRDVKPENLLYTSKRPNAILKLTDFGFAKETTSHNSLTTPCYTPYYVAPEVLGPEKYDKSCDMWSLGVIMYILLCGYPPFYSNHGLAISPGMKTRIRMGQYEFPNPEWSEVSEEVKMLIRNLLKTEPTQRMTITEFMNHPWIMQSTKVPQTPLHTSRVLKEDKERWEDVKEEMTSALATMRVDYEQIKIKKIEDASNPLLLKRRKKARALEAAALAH
row,Compound,IC50
1,"C=Cc1ncc(F)c(-c2ccc3c(ccc4sc5c(c43)NC[C@@H](C)NC5=O)n2)n1 [Example I-2, (R)-3-(5-fluoro-2-vinylpyrimidin-4-yl)-10-methyl-9,10,11,12-tetrahydro-8H-[1,4]diazepino[5′,6′:4,5]thieno[3,2-f]quinolin-8-one]",0.133 µM
2,"C=C(CN1CCCC1)c1cc(-c2ccc3c(ccc4sc5c(c43)NC[C@@H](C)NC5=O)n2)ccn1 [Example I-116, (R)-10-methyl-3-(2-(3-(pyrrolidin-1-yl)prop-1-en-2-yl)pyridin-4-yl)-9,10,11,12-tetrahydro-8H-[1,4]diazepino[5′,6′:4,5]thieno[3,2-f]quinolin-8-one]",0.006 µM
3,"C#Cc1cc(-c2ccc3c(ccc4sc5c(c43)NC[C@@H](C)NC5=O)n2)cc(N2CCN(CC)CC2)n1 [Example I-174, (R)-3-(2-(4-ethylpiperazin-1-yl)-6-ethynylpyridin-4-yl)-10-methyl-9,10,11,12-tetrahydro-8H-[1,4]diazepino[5′,6′:4,5]thieno[3,2-f]quinolin-8-one]",0.098 µM
4,"C=Cc1cc(-c2ccc3c(ccc4sc5c(c43)NC[C@@H](C)NC5=O)n2)cc(CN2CCC(F)(F)CC2)n1 [Example I-123, (R)-3-(2-((4,4-difluoropiperidin-1-yl)methyl)-6-vinylpyridin-4-yl)-10-methyl-9,10,11,12-tetrahydro-8H-[1,4]diazepino[5′,6′:4,5]thieno[3,2-f]quinolin-8-one]",0.031 µM
5,"COc1nnc(/C=C/CN(C)C)cc1-c1ccc2c(ccc3sc4c(c32)NC[C@@H](C)NC4=O)n1 [Example I-145, (R,E)-3-(6-(3-(dimethylamino)prop-1-en-1-yl)-3-methoxypyridazin-4-yl)-10-methyl-9,10,11,12-tetrahydro-8H-[1,4]diazepino[5′,6′:4,5]thieno[3,2-f]quinolin-8-one]",0.273 µM
6,"C=Cc1nc(CO)cc(-c2ccc3c(ccc4sc5c(c43)NC[C@@H](C)NC5=O)n2)n1 [Example I-85, (R)-3-(6-(hydroxymethyl)-2-vinylpyrimidin-4-yl)-10-methyl-9,10,11,12-tetrahydro-8H-[1,4]diazepino[5′,6′:4,5]thieno[3,2-f]quinolin-8-one]",0.011 µM
7,"C#Cc1ncc(COCC)c(-c2ccc3c(ccc4sc5c(c43)NC[C@@H](C)NC5=O)n2)n1 [Example I-12, (R)-3-(5-(ethoxymethyl)-2-ethynylpyrimidin-4-yl)-10-methyl-9,10,11,12-tetrahydro-8H-[1,4]diazepino[5′,6′:4,5]thieno[3,2-f]quinolin-8-one]",0.087 µM
8,"C[C@@H]1CNc2c(sc3ccc4nc(-c5nc(Cl)ncc5C(F)(F)F)ccc4c23)C(=O)N1 [Example I-4, (R)-3-(2-chloro-5-(trifluoromethyl)pyrimidin-4-yl)-10-methyl-9,10,11,12-tetrahydro-8H-[1,4]diazepino[5′,6′:4,5]thieno[3,2-f]quinolin-8-one]",0.001 µM
9,"C#Cc1cc(N2CCN(C)CC2)nc(-c2ccc3c(ccc4sc5c(c43)NC[C@@H](C)NC5=O)n2)n1 [Example I-61, (R)-3-(4-ethynyl-6-(4-methylpiperazin-1-yl)pyrimidin-2-yl)-10-methyl-9,10,11,12-tetrahydro-8H-[1,4]diazepino[5′,6′:4,5]thieno[3,2-f]quinolin-8-one]",0.073 µM
10,"C#Cc1cc(-c2ccc3c(ccc4sc5c(c43)NC[C@@H](C)NC5=O)n2)cc(N2CC(F)(F)C2)n1 [Example I-183, (R)-3-(2-(3,3-difluoroazetidin-1-yl)-6-ethynylpyridin-4-yl)-10-methyl-9,10,11,12-tetrahydro-8H-[1,4]diazepino[5′,6′:4,5]thieno[3,2-f]quinolin-8-one]",0.839 µM
11,"C=Cc1cc(N2CCN(C)CC2)nc(-c2ccc3c(ccc4sc5c(c43)NC[C@@H](C)NC5=O)n2)n1 [Example I-62, (R)-10-methyl-3-(4-(4-methylpiperazin-1-yl)-6-vinylpyrimidin-2-yl)-9,10,11,12-tetrahydro-8H-[1,4]diazepino[5′,6′:4,5]thieno[3,2-f]quinolin-8-one]",0.027 µM
12,"C=Cc1nc(CN2CCN(C)CC2)cc(-c2ccc3c(ccc4sc5c(c43)NC[C@@H](C)NC5=O)n2)n1 [Example I-88, (R)-10-methyl-3-(6-((4-methylpiperazin-1-yl)methyl)-2-vinylpyrimidin-4-yl)-9,10,11,12-tetrahydro-8H-[1,4]diazepino[5′,6′:4,5]thieno[3,2-f]quinolin-8-one]",0.015 µM
13,"C=Cc1cc(-c2ccc3c(ccc4sc5c(c43)NC[C@@H](C)NC5=O)n2)cc(N2CCN(CC)CC2)n1 [Example I-173, (R)-3-(2-(4-ethylpiperazin-1-yl)-6-vinylpyridin-4-yl)-10-methyl-9,10,11,12-tetrahydro-8H-[1,4]diazepino[5′,6′:4,5]thieno[3,2-f]quinolin-8-one]",0.035 µM
14,"C#Cc1nc(C#CC(C)(C)N)cc(-c2ccc3c(ccc4sc5c(c43)NC[C@@H](C)NC5=O)n2)n1 [Example I-65, (R)-3-(6-(3-amino-3-methylbut-1-yn-1-yl)-2-ethynylpyrimidin-4-yl)-10-methyl-9,10,11,12-tetrahydro-8H-[1,4]diazepino[5′,6′:4,5]thieno[3,2-f]quinolin-8-one]",0.132 µM
15,"C=Cc1cc(-c2ccc3c(ccc4sc5c(c43)NC[C@@H](C)NC5=O)n2)nc(C#CC(C)(C)N)n1 [Example I-66, (R)-3-(2-(3-amino-3-methylbut-1-yn-1-yl)-6-vinylpyrimidin-4-yl)-10-methyl-9,10,11,12-tetrahydro-8H-[1,4]diazepino[5′,6′:4,5]thieno[3,2-f]quinolin-8-one]",0.009 µM
16,"C#Cc1cc(-c2ccc3c(ccc4sc5c(c43)NC[C@@H](C)NC5=O)n2)nc(C#CC(C)(C)N)n1 [Example I-67, (R)-3-(2-(3-amino-3-methylbut-1-yn-1-yl)-6-ethynylpyrimidin-4-yl)-10-methyl-9,10,11,12-tetrahydro-8H-[1,4]diazepino[5′,6′:4,5]thieno[3,2-f]quinolin-8-one]",0.038 µM
17,"C[C@@H]1CNc2c(sc3ccc4nc(-c5cc(Cl)ncc5C(F)F)ccc4c23)C(=O)N1 [Example I-93, (R)-3-(2-chloro-5-(difluoromethyl)pyridin-4-yl)-10-methyl-9,10,11,12-tetrahydro-8H-[1,4]diazepino[5′,6′:4,5]thieno[3,2-f]quinolin-8-one]",0.238 µM
18,"C=Cc1cc(-c2ccc3c(ccc4sc5c(c43)NC[C@@H](C)NC5=O)n2)c(OC)nn1 [Example I-127, (R)-3-(3-methoxy-6-vinylpyridazin-4-yl)-10-methyl-9,10,11,12-tetrahydro-8H-[1,4]diazepino[5′,6′:4,5]thieno[3,2-f]quinolin-8-one]",0.05 µM

# More lines, now with the values ahead:
row,IC50,Compound
1,0.289 µM,"C=Cc1nc2c(c(-c3ccc4c(ccc5sc6c(c54)NC[C@@H](C)NC6=O)n3)n1)CN(C)CC2 [Example I-191, (R)-10-methyl-3-(6-methyl-2-vinyl-5,6,7,8-tetrahydropyrido[4,3-d]pyrimidin-4-yl)-9,10,11,12-tetrahydro-8H-[1,4]diazepino[5′,6′:4,5]thieno[3,2-f]quinolin-8-one]"
2,0.002 µM,"C=Cc1ncnn1-c1ccc2c(ccc3sc4c(c32)NC[C@@H](C)NC4=O)n1 [Example I-214, (R)-10-methyl-3-(5-vinyl-1H-1,2,4-triazol-1-yl)-9,10,11,12-tetrahydro-8H-[1,4]diazepino[5′,6′:4,5]thieno[3,2-f]quinolin-8-one]"
3,0.016 µM,"C[C@@H]1CNc2c(sc3ccc4nc(-n5ccnc5C#N)ccc4c23)C(=O)N1 [Example I-246, (R)-1-(10-methyl-8-oxo-9,10,11,12-tetrahydro-8H-[1,4]diazepino[5′,6′:4,5]thieno[3,2-f]quinolin-3-yl)-1H-imidazole-2-carbonitrile]"
4,0.103 µM,"C=Cc1cc(-c2ccc3c(ccc4sc5c(c43)NC[C@@H](C)NC5=O)n2)c(CN2C[C@@H](C)O[C@@H](C)C2)cn1 [Example I-213, (R)-3-(5-(((2S,6R)-2,6-dimethylmorpholino)methyl)-2-vinylpyridin-4-yl)-10-methyl-9,10,11,12-tetrahydro-8H-[1,4]diazepino[5′,6′:4,5]thieno[3,2-f]quinolin-8-one]"
5,0.027 µM,"C=Cc1cc(-c2ccc3c(ccc4sc5c(c43)NC[C@@H](CF)NC5=O)n2)c(C)cn1 [Example I-254, (S)-10-(fluoromethyl)-3-(5-methyl-2-vinylpyridin-4-yl)-9,10,11,12-tetrahydro-8H-[1,4]diazepino[5′,6′:4,5]thieno[3,2-f]quinolin-8-one]"
6,0.275 µM,"C=Cc1cc(-c2ccc3c(ccc4sc5c(c43)NC[C@@H](C)NC5=O)n2)c(CN2CC(F)(F)C2)cn1 [Example I-211, (R)-3-(5-((3,3-difluoroazetidin-1-yl)methyl)-2-vinylpyridin-4-yl)-10-methyl-9,10,11,12-tetrahydro-8H-[1,4]diazepino[5′,6′:4,5]thieno[3,2-f]quinolin-8-one]"
7,0.092 µM,"C=Cc1cc(-c2ccc3c(ccc4sc5c(c43)NC[C@@H](C)NC5=O)n2)c(CN2CCC(C(F)(F)F)CC2)cn1 [Example I-212, (R)-10-methyl-3-(5-((4-(trifluoromethyl)piperidin-1-yl)methyl)-2-vinylpyridin-4-yl)-9,10,11,12-tetrahydro-8H-[1,4]diazepino[5′,6′:4,5]thieno[3,2-f]quinolin-8-one]"
8,1 µM,"COc1nnc(/C=C/C(F)(F)F)cc1-c1ccc2c(ccc3sc4c(c32)NC[C@@H](C)NC4=O)n1 [Example I-200, (R,E)-3-(3-methoxy-6-(3,3,3-trifluoroprop-1-en-1-yl)pyridazin-4-yl)-10-methyl-9,10,11,12-tetrahydro-8H-[1,4]diazepino[5′,6′:4,5]thieno[3,2-f]quinolin-8-one]"
9,0.026 µM,"C=Cc1ncn(-c2ccc3c(ccc4sc5c(c43)NC[C@@H](C)NC5=O)n2)n1 [Example I-207, (R)-10-methyl-3-(3-vinyl-1H-1,2,4-triazol-1-yl)-9,10,11,12-tetrahydro-8H-[1,4]diazepino[5′,6′:4,5]thieno[3,2-f]quinolin-8-one]"
